Measurements taken from US20060135569A1, “Use of benzisoselenazolone compounds against ischemic myocardial damage” (priority 2002, published 2006).
Marks after values point to notes of the source that are not given here.

Key:
Na^+/Ca^2+ exchanger = molecular target: T1, Na^+/Ca^2+ exchanger (Cavia porcellus, UniProt P48766); assay: Na^+/Ca^2+ exchange current (INa—Ca), whole-cell patch clamp, intracellular Na^+ overload cell model; type: cell-based, guinea pig; set-up: Inhibitory rate of outward INa—Ca (%) / Inhibitory rate of inward INa—Ca (%): concentration or dose not given beside the values; conditions: for inhibitory ratio on INa—Ca at −80 mV: inward current; for inhibitory ratio on INa—Ca at +50 mV: outward current; for selectivity of inhibition of outward versus inward INa—Ca: biphasic ion conditioning; for effective concentration (significant inhibitory effect on reverse mode Na^+/Ca^2+ exchange): intracellular Na^+ overload
T1 construct: endogenous in cells; host or cells: freshly isolated guinea pig ventricular myocytes
Source text: 1. Establishment of Assaying Method for Biphasical Current Detection in Na^+/Ca^2+ Exchange System
Since the reverse mode of Na^+/Ca^2+ exchange process is one of the main mechanisms involving in ischemia/reperfusion insult, it is of great importance to establish cell model represented reverse mode Na^+/Ca^2+ exchange process for the development of drugs against ischemic injury. Therefore, we successfully established cell model of reverse mode Na^+/Ca^2+ exchange system by intracellular Na^+ dialysis technique, and recorded Na^+/Ca^2+ exchange currents by patch clamp experiment.
Internal solution contained certain concentration of NaCl was filled to the microcatheter, and ion exchange process between the cellular and internal solutions was conducted after whole cell currents were recorded by patch clamp. Na^+ contained in the internal solution was dialyzed into the cell; result in the high intracellular Na^+ concentration. After that, the cell was champed at a holding potential of −40 mV, then depolarized to +60 mV and followed by a conversely declining ramp stimuli at a speed of 80 mV·s^−1 and 2 s conditioning pulse, then repolarized to −100 mV with a frequency of 0.05 Hz. Under the stimulation protocol, current from outward to the inward direction was recorded by perfusing modified biphasical Tyrode solution (in which the outward and inward currents can be recorded simultaneously) with the addition of 1 mmol·L^−1 of BaCl2 and 2 mmol·L^−1 of CsCl to block K^+ channels, 1 μmol·L^−1 of verapamil to block L-type Ca^2+ channels, and 20 μmol·L^−1 of ouabain to block Na^+/K^+ ATPase, and 20 mmol·L^−1 of TEA to block potassium channels. The recorded inward currents were presented in a linear manner owing to the blockade of other time-dependent currents. With the increase of intracellular Na^+ level and prolongation of time, the reverse mode of Na^+/Ca^2+ exchange process was activated. […] Under such experimental conditioning, the maximum reverse mode current was recorded 3 min after cell crushed. No significant “run-down” was observed within the record period of 8 minutes. The inward and outward current were inhibited by 5 mmol·L^−1 of Ni^2+ treatment, and the experiment result in two current-voltage curves in the absence or presence of Ni^2+. The Ni^2+ sensitive current, also called electrophysiological Na^+/Ca^2+ exchange current (INa·Ca), was the minus result of two current-voltage curves. The reverse mode potential of INa—Ca was about −20 mV
Male guinea pigs weighting 250˜280 g provided by the Animal Center of the Chinese Academy of Medical Sciences were hammered and sacrificed. The chest was opened and the heart was removed quickly. Fatty tissue and pericardium were removed in a Ca^2+-free solution at 4° C., and heart was sequentially mounted on a Langendorff apparatus. First, the heart was perfused conversely via the aorta for 6 min with Ca^2+-free solution in order to wash out residual blood, then the heart expands and the color of it turns to pink. Then the heart was perfused with Ca^2+-free solution containing 0.1 mg/ml of pronase E, 0.5 mg/ml defatted bovine serum albumin (BSA) and 150 μM Ca^2+ for 2˜3 min, until the heart expanded and became soft. The atrium was removed, and the digested heart was minced with scissors, stirred in a beaker at 37° C. for 5˜10 min. The supernatant was diluted with Ca^2+-free solution containing 0.5 mg/ml BSA and 1.8 mM Ca^2+. The supernatant was placed at room temperature (20˜24° C.) for 1 hr and then subjected to the experiment. During the whole perfusion period, pressure was kept at 70 cmH2O and the temperature of solution was kept at 37° C. with continuously gassed with 95% O2 and 5% CO2.
Rod-shaped cells with clear striations and intact membrane were used. […]

[1] = system: isolated rat hearts subjected to ischemia-reperfusion (I/R); assay: Isolated heart subjected to ischemia/reperfusion injury (arrhythmia); conditions: 10^−6 M; isolated heart ischemia/reperfusion
Protocol: Based on the pre-electrophysiological cell model screening, we have compared the inhibition ratios of the outward current by reverse-transportation of Na^+/Ca^2+ exchange, and further in vitro tests on isolated rat hearts subjected to ischemia-reperfusion (I/R) were conducted. Prolongation of ventricular arrhythmic, incidence rate of ventricular extrasystole, ventricular tachycardia/ventricular fibrillation (VT/VF) were recorded to evaluate the protective actions of drugs on myocardial injury.
On the basis of above screening results obtained from electrophysiological studies, and the result from comparative study on the research of the inhibitory effect of compounds on reverse mode Na^+/Ca^2+ exchange process, 7 effective compounds were subjected to in vitro study. Among which, IMM-313, IMM-004 and IMM-132 have structures containing chlorine; IMM-127, IMM-128 and IMM-129 have structures containing fluorine; and IMM-065 has a structure containing OH. The experiment performed in the isolated heart subjected to ischemia/reprefusion insult. Prolongation of ventricular arrhythmic, incidence of ventricular extrasystole, ventricular tachycardia/ventricular fibrillation (VT/VF) were recorded in order to evaluate the protective actions of drugs on myocardial injury.

[2] = system: arrhythmia caused by ischemia/reperfusion insults in anaesthetic rats; assay: Ischemia/reperfusion arrhythmia in anaesthetic rats, intravenous injection; type: in vivo, rat; conditions: rats
Source text: (1) Protective Effects of the Tested Compounds on Myocardial Insults in Rats after Intravenously Injection
Arrhythmic potency induced by myocardial insults was used to assess the potential protective effect of the compounds.

[3] = screening of 22 candidate compounds
[4] = Example 1 table, myocardial cell
[5] = 0.3 mg/Kg intravenous (femoral vein)

Compound: O=c1c2cc(Cl)ccc2[se]n1-c1ccccc1 [IMM-131, 5-chloro-2-phenyl-1,2-benz-isoselenazol-3(2H)-one]
- Inhibitory rate of inward INa—Ca (%) (Na^+/Ca^2+ exchanger; [3]): 15%
- Inhibitory rate of outward INa—Ca (%) (Na^+/Ca^2+ exchanger; [3]): 22%

Compound: O=c1c2cc(Cl)ccc2[se]n1-c1ccncc1 [IMM-132, 5-chloro-2-(4-pyridyl)-1,2-benz-isoselenazol-3(2H)-one]
- AAT: arrhythmic occurrence time, Time [1]: 29.13 ± 0.69 min
- VF (ventricular fibrillation) Incidence rate (%) [1]: 85.7%
- VPS (ventricular premature beats) Incidence rate (%) [1]: 28.6%
- VT (ventricular tachycardia) Incidence rate (%) [1]: 85.7%
- Inhibitory rate of inward INa—Ca (%) (Na^+/Ca^2+ exchanger; [4]): 14%
- Inhibitory rate of outward INa—Ca (%) (Na^+/Ca^2+ exchanger; [4]): 44%
- Inhibitory rate of inward INa—Ca (%) (Na^+/Ca^2+ exchanger; [3]): 14%
- Inhibitory rate of outward INa—Ca (%) (Na^+/Ca^2+ exchanger; [3]): 44* %

Compound: O=c1c2ccc(Cl)cc2[se]n1-c1ccccn1 [IMM-142, 6-chloro-2-(2-pyridyl)-1,2-benz-isoselenazol-3(2H)-one]
- Inhibitory rate of inward INa—Ca (%) (Na^+/Ca^2+ exchanger; [3]): 57%
- Inhibitory rate of outward INa—Ca (%) (Na^+/Ca^2+ exchanger; [3]): 46%

Compound: N=C(N)SCCc1ccc(OCc2ccc([N+](=O)[O-])cc2)cc1 [KB-R7943, 2-[2-[4-(4-nitrobenzyloxy)phenyl]]isothiourea, reference compound]
- inhibitory ratio on INa—Ca at −80 mV (Na^+/Ca^2+ exchanger; 1 μM): 22%
- inhibitory ratio on INa—Ca at +50 mV (Na^+/Ca^2+ exchanger; 1 μM): 29%
- inhibitory ratio on INa—Ca at −80 mV (Na^+/Ca^2+ exchanger; 10 μM): 57%
- inhibitory ratio on INa—Ca at +50 mV (Na^+/Ca^2+ exchanger; 10 μM): 61%
- selectivity of inhibition of outward versus inward INa—Ca (Na^+/Ca^2+ exchanger): without selectivity
- selectivity of inhibition of outward versus inward INa—Ca (Na^+/Ca^2+ exchanger; listed as KB-R794): poor selectivity

Compound: O=c1c2ccc(Cl)cc2[se]n1-c1cccnc1 [IMM-141, 6-chloro-2-(3-pyridyl)-1,2-benz-isoselenazol-3(2H)-one]
- Inhibitory rate of inward INa—Ca (%) (Na^+/Ca^2+ exchanger; [3]): 2%

Compound: O=c1c2cc(Cl)ccc2[se]n1-c1cccnc1 [IMM-125, 5-chloro-2-(3-pyridyl)-1,2-benz-isoselenazol-3(2H)-one]
- Inhibitory rate of inward INa—Ca (%) (Na^+/Ca^2+ exchanger; [3]): 14%
- Inhibitory rate of outward INa—Ca (%) (Na^+/Ca^2+ exchanger; [3]): 35%

Compound: O=c1c2ccccc2[se]n1Cc1ccco1 [IMM-059, 2-(2-furanylmethyl)-1,2-benz-isoselenazol-3(2H)-one]
- Inhibitory rate of inward INa—Ca (%) (Na^+/Ca^2+ exchanger; [3]): 15%
- Inhibitory rate of outward INa—Ca (%) (Na^+/Ca^2+ exchanger; [3]): 8%

Compound: CCCCC1OC(=O)c2cccc(-n3[se]c4ccccc4c3=O)c21 (stereo not drawn) [IMM-623, 2-[4-(7-n-butyl-benzo(1,2-c-di-hydrofuran-2-one))]-1,2-benz-isoselenazol-3(2H)-one]
- Inhibitory rate of inward INa—Ca (%) (Na^+/Ca^2+ exchanger; [3]): 15%
- Inhibitory rate of outward INa—Ca (%) (Na^+/Ca^2+ exchanger; [3]): 11%

Compound: O=c1c2ccccc2[se]n1-c1ccncc1 [IMM-001, 2-(4-pyridyl)-1,2-benzisoselenazol-3(2H)-one]
- incidence and duration of VT, VF, VE / ventricular arrhythmic ([2]; 3 mg/Kg intravenous (femoral vein)): all reduced
- inhibitory ratio on INa—Ca at −80 mV (Na^+/Ca^2+ exchanger; 0.1 μM): 15%
- inhibitory ratio on INa—Ca at +50 mV (Na^+/Ca^2+ exchanger; 0.1 μM): 28%
- inhibitory ratio on INa—Ca at −80 mV (Na^+/Ca^2+ exchanger; 1 μM): 24%
- inhibitory ratio on INa—Ca at +50 mV (Na^+/Ca^2+ exchanger; 1 μM): 48%
- inhibitory ratio on INa—Ca at −80 mV (Na^+/Ca^2+ exchanger; 10 μM): 42%
- inhibitory ratio on INa—Ca at +50 mV (Na^+/Ca^2+ exchanger; 10 μM): 66%
- selectivity of inhibition of outward versus inward INa—Ca (Na^+/Ca^2+ exchanger): high selectivity
- effective concentration (significant inhibitory effect on reverse mode Na^+/Ca^2+ exchange) (Na^+/Ca^2+ exchanger): 10^−7 to 10^−5 mol·L^−1

Compound: COc1ccc(CCN(C)CCCC(C#N)(c2ccc(OC)c(OC)c2)C(C)C)cc1OC (stereo not drawn) [Verapamil, reference compound]
- incidence of VT, VF, VE and duration of arrhythmic [2, 5]: all reduced
- latency of ventricular arrhythmic [2, 5]: significantly prolonged

Compound: O=c1c2ccccc2[se]n1-c1cccnc1 [IMM-030, 2-(3-pyridyl)-1,2-benzisoselenazol-3(2H)-one]
- Inhibitory rate of inward INa—Ca (%) (Na^+/Ca^2+ exchanger; [3]): 17%
- Inhibitory rate of outward INa—Ca (%) (Na^+/Ca^2+ exchanger; [3]): 12%

Compound: O=c1c2cc(F)ccc2[se]n1-c1ccncc1 [IMM-129, 5-fluoro-2-(4-pyridyl)-1,2-benz-isoselenazol-3(2H)-one]
- AAT: arrhythmic occurrence time, Time [1]: 23.67 ± 3.87 min
- VF (ventricular fibrillation) Incidence rate (%) [1]: 63%
- VPS (ventricular premature beats) Incidence rate (%) [1]: 37.5%
- VT (ventricular tachycardia) Incidence rate (%) [1]: 75%
- Inhibitory rate of inward INa—Ca (%) (Na^+/Ca^2+ exchanger; [4]): 57%
- Inhibitory rate of outward INa—Ca (%) (Na^+/Ca^2+ exchanger; [4]): 59%
- Inhibitory rate of inward INa—Ca (%) (Na^+/Ca^2+ exchanger; [3]): 57* %
- Inhibitory rate of outward INa—Ca (%) (Na^+/Ca^2+ exchanger; [3]): 59* %

Compound: O=c1c2ccccc2[se]n1Cc1ccccn1 [IMM-058, 2-(2-pyridylmethyl)-1,2-benz-isoselenazol-3(2H)-one]
- Inhibitory rate of outward INa—Ca (%) (Na^+/Ca^2+ exchanger; [3]): 3%

Compound: O=c1c2ccccc2[se]n1-c1cccc2cccnc12 [IMM-003, 2-(8-quinolinyl)-1,2-benz-isoselenazol-3(2H)-one]
- Inhibitory rate of outward INa—Ca (%) (Na^+/Ca^2+ exchanger; [3]): 22%

Compound: O=c1c2cc(F)ccc2[se]n1-c1ccccc1 [IMM-130, 5-fluoro-2-phenyl-1,2-benz-isoselenazol-3(2H)-one]
- Inhibitory rate of inward INa—Ca (%) (Na^+/Ca^2+ exchanger; [3]): 43%
- Inhibitory rate of outward INa—Ca (%) (Na^+/Ca^2+ exchanger; [3]): 30%

Compound: N=C(N)NC(=O)c1nc(Cl)c(N)nc1N [Amiloride, reference compound]
- inhibitory ratio on INa—Ca at −80 mV (Na^+/Ca^2+ exchanger; 10 μM): 6%
- inhibitory ratio on INa—Ca at +50 mV (Na^+/Ca^2+ exchanger; 10 μM): 15%
- inhibitory ratio on INa—Ca at −80 mV (Na^+/Ca^2+ exchanger; 30 μM): 15%
- inhibitory ratio on INa—Ca at +50 mV (Na^+/Ca^2+ exchanger; 30 μM): 23%
- inhibitory ratio on INa—Ca at −80 mV (Na^+/Ca^2+ exchanger; 100 μM): 23%
- inhibitory ratio on INa—Ca at +50 mV (Na^+/Ca^2+ exchanger; 100 μM): 41%
- effective concentration (significant inhibitory effect on reverse mode Na^+/Ca^2+ exchange) (Na^+/Ca^2+ exchanger): above 10^−5 mol·L^−1

Compound: O=c1c2cc(O)ccc2[se]n1-c1ccccn1 [IMM-163, 5-hydroxy-2-(2pyridyl)-1,2-benz-isoselenazol-3(2H)-one]
- Inhibitory rate of inward INa—Ca (%) (Na^+/Ca^2+ exchanger; [3]): 19%
- Inhibitory rate of outward INa—Ca (%) (Na^+/Ca^2+ exchanger; [3]): 14%

Compound: O=c1c2ccccc2[se]n1/C=C/C1N=CCN1 (stereo not drawn) [IMM-002, 2-[(3,4-dihydroimidazol-2-yl)-2-ethenyl]-1,2-benz-isoselenazol-3(2H)-one]
- Inhibitory rate of inward INa—Ca (%) (Na^+/Ca^2+ exchanger; [3]): 34%
- Inhibitory rate of outward INa—Ca (%) (Na^+/Ca^2+ exchanger; [3]): 32* %

Compound: O=c1c2cc(O)ccc2[se]n1-c1ccccc1 [IMM-164, 5-hydroxy-2-phenyl-1,2-benz-isoselenazol-3(2H)-one]
- Inhibitory rate of inward INa—Ca (%) (Na^+/Ca^2+ exchanger; [3]): 22%
- Inhibitory rate of outward INa—Ca (%) (Na^+/Ca^2+ exchanger; [3]): 8%
